Biological target: TRPML1 (Homo sapiens, UniProt Q9GZU1)
Assay: Calcium flux in HEK293 overexpressing TRPML1 plasma membrane variant (FLIPR, Calcium 6 dye)
Type: cell-based
Settings: HEK293/TRPML1-PM clone A5 cells; 4-parameter logistic fit; read-out: TRPML1 calcium flux (FLIPR) dose response: EC50
Excerpt: Example B1. Calcium Flux in HEK293 Overexpressing TRPML1 Plasma Membrane Variant—Calcium 6 Dye
Cells: HEK293/TRPML1-PM clone A5, clonal cell line containing mutant TRPML1 (both N- and C-terminal dileucine targeting motifs deleted) that localizes to the plasma membrane
Plates: Perkin Elmer Viewplate cat. #6007460, black optically clear, tissue culture treated 384-well plate
Calcium dye: Molecular Devices FLIPR Calcium 6 Assay Kit, cat. #R8190 or Fluo-4 Direct from Thermo Fisher, cat. #F10471
Tips: Molecular Devices 384-well FLIPR Tetra black tips, cat. #9000-0764 Example B1.2 Method
HEK293/TRPML1-PM clone A5 cells were trypsinized from flasks, counted, then diluted in media to 15,000 cells per 25 μL, and seeded into a black, 384-well viewplate, and cultured overnight.
One vial of calcium 6 dye was diluted with 10 mL of assay buffer (HBSS+20 mM HEPES pH 7.4) and 25 μL of the dilution was added per well to the cells.
After incubating for 2 hours at 37° C., the plate was moved to the FLIPR in the read position.
The compounds were diluted in EMEM with 0.125% FBS to 5× concentration and loaded in a 384-well plate according to the desired plate map for the assay, including DMSO alone and carbachol controls, then the plate was moved to the FLIPR in the source 2 position.
A box of tips was placed in the source 1 position within the FLIPR to complete the assay set up.
Once the run was started, an initial baseline fluorescent measurement was performed for 10 seconds (470-495 nm excitation and 515-575 nm emission) prior to adding the compounds.
12.5 μL of 5× test compound, DMSO alone, or carbachol were added via the FLIPR and real-time fluorescence measurements were performed for an additional 170 seconds with 1 read per second.
The data was normalized to baseline by calculating maximum fluorescence minus minimum fluorescence and plotted as response (fold) over the baseline versus log ([…] concentration). The EC50 was determined using a 4-parameter logistic curve fit in Graphpad Prism 9.

TRPML1, sequence (Q9GZU1 17-572 limits assumed): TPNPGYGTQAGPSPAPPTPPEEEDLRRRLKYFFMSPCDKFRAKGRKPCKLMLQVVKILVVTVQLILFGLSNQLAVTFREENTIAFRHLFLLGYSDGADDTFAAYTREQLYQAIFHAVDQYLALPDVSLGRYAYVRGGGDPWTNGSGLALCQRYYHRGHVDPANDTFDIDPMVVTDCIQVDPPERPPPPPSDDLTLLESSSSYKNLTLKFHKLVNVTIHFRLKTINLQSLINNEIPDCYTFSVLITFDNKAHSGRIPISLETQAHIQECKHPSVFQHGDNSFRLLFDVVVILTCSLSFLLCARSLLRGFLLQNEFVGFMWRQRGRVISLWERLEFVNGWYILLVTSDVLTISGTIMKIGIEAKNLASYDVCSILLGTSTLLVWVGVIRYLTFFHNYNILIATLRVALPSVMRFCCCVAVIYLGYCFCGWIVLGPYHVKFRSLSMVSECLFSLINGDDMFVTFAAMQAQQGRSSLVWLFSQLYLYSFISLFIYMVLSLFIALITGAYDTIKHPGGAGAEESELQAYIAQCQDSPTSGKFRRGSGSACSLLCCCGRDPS

Structure (SMILES)	EC50 [µM]
CN(C)S(=O)(=O)c1ccc(S(=O)(=O)Nc2ccccc2N(C(=O)C(F)(F)F)C2CCCCC2)cc1 [Compound 63, N-cyclohexyl-N-(2-((4-(N,N-dimethylsulfamoyl)phenyl)sulfonamido)phenyl)-2,2,2-trifluoroacetadmie]	11
CN(CCC1CCOCC1)c1ccccc1NS(=O)(=O)c1ccc(S(=O)(=O)N(C)C)cc1 [Compound 114, N1,N1-dimethyl-N4-(2-(methyl(2-(tetrahydro-2H-pyran-4-yl)ethyl)amino)phenyl)benzene-1,4-disulfonamide]	4.02
CCn1cnc(CN(C)c2ccccc2NS(=O)(=O)c2ccc(S(=O)(=O)N(C)C)cc2)c1 [Compound 44, N1-(2-(((1-ethyl-1H-imidazol-4-yl)methyl)(methyl)amino)phenyl)-N4,N4-dimethylbenzene-1,4-disulfonamide]	> 10
CN(CC1COC1)c1ccccc1NS(=O)(=O)c1ccc(S(=O)(=O)N(C)C)cc1 [Compound 47, N1,N1-dimethyl-N4-(2-(methyl(oxetan-3-ylmethyl)amino)phenyl)benzene-1,4-disulfonamide]	> 10
Cc1cnn(C)c1CN(C)c1ccccc1NS(=O)(=O)c1ccc(S(=O)(=O)N(C)C)cc1 [Compound 80, N1-(2-(((1,4-dimethyl-1H-pyrazol-5-yl)methyl)(methyl)amino)phenyl)-N4,N4-dimethylbenzene-1,4-disulfonamide]	5.94
CCN(CC)c1ccccc1NS(=O)(=O)c1ccc(S(=O)(=O)N(C)C)cc1 [Compound 82, N1-(2-(diethylamino)phenyl)-N4,N4-dimethylbenzene-1,4-disulfonamide]	3.76
Cc1nn(C)cc1CN(C)c1ccccc1NS(=O)(=O)c1ccc(S(=O)(=O)N(C)C)cc1 [Compound 50, N1-(2-(((1,3-dimethyl-1H-pyrazol-4-yl)methyl)(methyl)amino)phenyl)-N4,N4-dimethylbenzene-1,4-disulfonamide]	6.55

Now those with a lower EC50, led by results:

EC50 [µM]	Structure (SMILES)
3.02	CN(Cc1cnsc1)c1ccccc1NS(=O)(=O)c1ccc(S(=O)(=O)N(C)C)cc1 [Compound 101, N1-(2-((isothiazol-4-ylmethyl)(methyl)amino)phenyl)-N4,N4-dimethylbenzene-1,4-disulfonamide]
2.53	CN(Cc1ccn(C2CC2)n1)c1ccccc1NS(=O)(=O)c1ccc(S(=O)(=O)N(C)C)cc1 [Compound 94, N1-(2-(((1-cyclopropyl-1H-pyrazol-3-yl)methyl)(methyl)amino)phenyl)-N4,N4-dimethylbenzene-1,4-disulfonamide]
2.18	Cc1cccc(N(C)C2CCCCC2)c1NS(=O)(=O)c1ccc(S(=O)(=O)N(C)C)cc1 [Compound 36, N1-(2-(cyclohexyl(methyl)amino)-6-methylphenyl)-N4,N4-dimethylbenzene-1,4-disulfonamide]
1.97	CN(c1ccccc1NS(=O)(=O)c1ccc(S(=O)(=O)N(C)C)cc1)C1CCCCC1(F)F (centres unmarked) [Compound 103, N1-(2-((2,2-difluorocyclohexyl) (methyl)amino)phenyl)-N4,N4-dimethylbenzene-1,4-disulfonamide]
1.4	CN(CCc1nccs1)c1ccccc1NS(=O)(=O)c1ccc(S(=O)(=O)N(C)C)cc1 [Compound 90, N1,N1-dimethyl-N4-(2-(methyl(2-(thiazol-2-yl)ethyl)amino)phenyl)benzene-1,4-disulfonamide]
0.42	COCC1(C)CCC(CN(C)c2ccccc2NS(=O)(=O)c2ccc(S(=O)(=O)N(C)C)cc2)CC1 (centres unmarked) [Compound 39, N1-(2-(((4-(methoxymethyl)-4-methylcyclohexyl)methyl)(methyl)amino)phenyl)-N4,N4-dimethylbenzene-1,4-disulfonamide]
0.27	CN(c1ccccc1NS(=O)(=O)c1ccc(S(=O)(=O)N(C)C)cc1)C1CCC(F)(F)CC1 [Compound 41, N1-(2-((4,4-difluorocyclohexyl) (methyl)amino)phenyl)-N4,N4-dimethylbenzene-1,4-disulfonamide]

Reference: US20250340510A1, “Substituted Phenylbenzenesulfonamide Derivatives and Uses Thereof” (Nine Square Therapeutics Corporation, priority 2022, published 2025)
